Test results taken from US20160291027A1, “METHODS FOR […] ABILITY OF A Z[…] COMPOUND TO TREAT CANCER” (Eisai R&D Management Co., Ltd., priority 2007, published 2016).

How the values were obtained:
[1] = test system: AU-565; experiment: Western blotting of response markers; assay type: cell-based; conditions: resistant cell line AU-565; 24 hours; concentration dependent
Procedure: (§1) In order to identify markers that could serve as response markers for determining whether a cancer in a subject is sensitive to treatment with a zearalenone analog compound, phospho-ERK, total ERK protein, phospho-pRB, total pRB, and Cyclin D1 protein levels in a cell line sensitive to Compound 106 (e.g., SK-MEL-28) and cell lines resistant to Compound 106 (e.g., AU-565) were examined by Western blotting. 2×10^6 cancer cells (SK-MEL-28 and AU-565) were plated into a 100 mm dish and incubated for two days. Test compound, e.g., Compound 106, was then added to each dish for 24 hours at a concentration ranging from […] to […]. Culture medium was added to the cells as a control. SK-MEL-28 and AU-565 cell lysate proteins were subjected to SDS-PAGE under reducing condition and immunoblotted with an antibody against phospho-ERK1/2 (catalog #9101, Cell Signaling Technology®, Danvers, Mass.), phospho-pRB (catalog #9307, Cell Signaling Technology®, Danvers, Mass.), or Cyclin D1 (catalog #sc-8396, Santa Cruz, Calif.). ERK1 (catalog #sc-93, Santa Cruz, Calif.) or pRb (catalog #sc-102, Santa Cruz, Calif.) antibody was used for the detection of the total amount of protein.

[2] = test system: SK-MEL-28; experiment: Western blotting of response markers; assay type: cell-based; conditions: sensitive cell line SK-MEL-28, 24 hours
Procedure: as §1

[3] = test system: SF-295 human glioblastoma xenografts; experiment: Plasma human IL-8 (ELISA) in tumor bearing mice; assay type: in vivo; conditions: SF-295 tumor bearing mice; 40 mg/kg i.v. QD×4; 24 hours after the fourth dosing
From the text: (§2) In order to determine whether plasma IL-8 levels could be measurable in tumor xenograft bearing mice and whether plasma IL-8 levels change after treatment with Compound 106, COLO-829 and UACC-62 melanoma xenografts were established as Compound 106 sensitive xenografts in female nude mice. SF-295 human glioblastoma (BRAF wild-type) xenografts were established as an Compound 106 resistant tumor model in female nude mice. Female athymic NU/NU mice were inoculated subcutaneously with COLO-829, UACC-62 human melanoma cancer cells, or SF-295 human glioblastoma cells. Those animals that developed tumors of approximately 250 mm^3 were selected and randomized to two groups. The experiment consisted of a vehicle-treated and 40 mg/kg Compound 106-treated groups of 8 mice per group on the first day of treatment. Compound 106 was administered intravenously (i.v.) on a QD×4 (every day for a total of four injections) dosing schedule. The subcutaneous tumor volumes were measured on the first day of treatment and 24 hours after the fourth treatment. Heparinized blood was collected from these mice 24 hours after the fourth treatment with Compound 106 using a cardiac puncture, and plasma was isolated. The levels of human IL-8 in the plasma were determined by ELISA.

[4] = test system: UACC-62 melanoma xenografts; experiment: Plasma human IL-8 (ELISA) in tumor bearing mice; assay type: in vivo; conditions: UACC-62 xenograft; 40 mg/kg i.v. QD×4; 24 hours after the fourth dosing
From the text: as §2

[5] = test system: COLO-829 melanoma xenografts; experiment: Plasma human IL-8 (ELISA) in tumor bearing mice; assay type: in vivo; conditions: COLO-829 xenograft; 40 mg/kg i.v. QD×4; 24 hours after the fourth dosing
From the text: as §2

[6] = test system: DBTRG-05MG human glioblastoma xenografts; experiment: Subcutaneous DBTRG-05MG glioblastoma xenograft model; assay type: in vivo, mice
Procedure: The purpose of this study was to investigate anticancer activity of Compound 106 in a human DBTRG-05MG glioblastoma xenograft model. DBTRG-05MG human glioblastoma cancer cells, which carry the BRAF (V600E) mutation, were grown in monolayer cultures in ATCC-recommended growth media at 37° C. in a 5% CO2 humidified incubator. Cells were expanded in T225 flasks for the in vivo study. On the day of injection, growth medium was removed, flasks were washed with PBS, and cells were collected by trypsinization. The cells were washed and collected by centrifugation, and resuspended in ice-cold PBS.
Female athymic NU/NU mice (6 week old, Charles River Laboratories (Wilmington, Mass.)) were inoculated subcutaneously (s.c.) with 5×10^6 DBTRG-05MG human glioblastoma cancer cells. Those animals that developed tumors of approximately 150 mm^3 were selected and randomized into five groups.
The study consisted of a vehicle-treated group and four drug-treated groups of 8 mice per group for a total of 40 mice on the first day of treatment. All treatments were initiated on day 21. Compound 106 was administered intravenously (i.v.) on a Q4D×3 (days 21, 25, and 29) dosing schedule at dosages of 5, 10, 20 and 40 mg/kg with a volume of injection of 0.1 mL per 10 g body weight (Q4D×3=every four days for a total of three injections). The control group was treated with vehicle alone (20% Captisol in water; Captisol® (Sulfobutyl Ether Beta Cycolodextrin, Sodium Salt; Cydex, Inc., KS)).
General health of the mice was monitored and mortality was recorded daily. Tumor dimensions and animal body weights were recorded twice a week starting on the first day of treatment. The s.c. tumor volumes were measured and animals were weighed twice weekly starting with the first day of treatment. Tumor volume was determined by caliper measurement (mm) and using the following formula: […]
The study was terminated 60 days after cancer cell transplantation. […]

[7] = test system: BRAF-mutated xenograft models (breast, colon, and melanoma cell lines); experiment: Other xenograft models, BRAF-mutated; assay type: in vivo, mice; conditions: 40 mg/kg i.v. QD×5 for 2 weeks
Procedure: Additionally, one, five, and seven out of eight animals in the groups treated with Compound 106 at doses of 10, 20, or 40 mg/kg, respectively, were tumor-free at the end of the study on day 59. […] Compound 106 was also tested in other xenograft models, in which BRAF-mutated cells, including breast, colon, and melanoma cell lines, or wildtype cells, including pancreatic cell lines, were transplanted subcutaneously into female nude mice. Compound 106 or a vehicle control was administered intravenously.

CCNc1cc(O)c2c(c1)/C=C/C[C@H](O)[C@H](O)C(=O)/C=C\[C@@H](C)[C@H](C)OC2=O [Compound 106]
protein levels of phospho-ERK [1]: inhibited | Protein levels of p27 [2]: increased | phospho-pRB protein [2]: decrease | protein levels of Cyclin D1 [2]: decreased | protein levels of phospho-ERK ([2]; concentration dependent): inhibited | Plasma IL-8 levels [3]: did not change | Plasma IL-8 levels [4]: almost completely blocked | Plasma IL-8 levels [5]: almost completely blocked | Tumor-free animals on day 60 ([6]; 5 mg/kg i.v. Q4D×3): One out of eight | Tumor-free animals on day 60 ([6]; 20 mg/kg i.v. Q4D×3): One out of eight | Anticancer activity (tumor volume vs. control group) ([6]; 5, 10, 20, and 40 mg/kg i.v. Q4D×3): statistically significant anticancer activity | tumor regression ([7]; strongest effect of the range): about 73% | tumor growth inhibition ([7]; weakest effect of the range: tumor stasis (but not regression) during treatment): > 80%
